System: phagocytic J774.2 murine macrophages
Assay: No-wash phagocytosis assay with dye-conjugated E. coli bioparticles
Type: cell-based
Conditions: E. coli bioparticles conjugated to a pH-sensitive fluorescent dye
Text: Certain embodiments provide for a no-wash, no-quench assay for phagocytosis that is based on fluorogenic bioparticles comprising the pH-sensitive fluorescent dye compounds provided herein. Current protocols for measuring phagocytosis that use fluorescent bioparticles, require a trypan blue quenching step and several washing steps. These steps can introduce significant variability in the assay. To address this issue, provided herein is a no-wash phagocytosis kit, using E. coli bioparticles conjugated to a pH-sensitive fluorescent dye as described herein. These bioparticle conjugates are weakly fluorescent at extracellular pH. […] The pH-sensitive fluorescent bioparticles described herein may be used in plate based, as well as imaging and flow cytometry assays of phagocytosis.

Compound: C=C1[C@@H](C)[C@H]2[C@H](Cc3ccccc3)NC(=O)[C@]23[C@H](OC(C)=O)/C=C/[C@@](C)(O)C(=O)[C@@H](C)C/C=C/[C@H]3[C@@H]1O [cytochalaisin D, cytochalasin D]
- inhibition of uptake of the bioparticles (phagocytosis): potently inhibited
